Laboratory results from patent EP1100483B1, “GLUCOCORTICOID-SELECTIVE ANTI-INFLAMMATORY AGENTS” (Abbott Laboratories, priority 1998, dated 2000).

Biological target: T1, human glucocorticoid receptor-α [GRX] isoform (Homo sapiens, UniProt P04150)
T1 construct: purchased Ligand Pharmaceuticals (San Diego, CA); host or cells: insect SF21 cells (baculovirus)
T1 sequence (P04150 1-777): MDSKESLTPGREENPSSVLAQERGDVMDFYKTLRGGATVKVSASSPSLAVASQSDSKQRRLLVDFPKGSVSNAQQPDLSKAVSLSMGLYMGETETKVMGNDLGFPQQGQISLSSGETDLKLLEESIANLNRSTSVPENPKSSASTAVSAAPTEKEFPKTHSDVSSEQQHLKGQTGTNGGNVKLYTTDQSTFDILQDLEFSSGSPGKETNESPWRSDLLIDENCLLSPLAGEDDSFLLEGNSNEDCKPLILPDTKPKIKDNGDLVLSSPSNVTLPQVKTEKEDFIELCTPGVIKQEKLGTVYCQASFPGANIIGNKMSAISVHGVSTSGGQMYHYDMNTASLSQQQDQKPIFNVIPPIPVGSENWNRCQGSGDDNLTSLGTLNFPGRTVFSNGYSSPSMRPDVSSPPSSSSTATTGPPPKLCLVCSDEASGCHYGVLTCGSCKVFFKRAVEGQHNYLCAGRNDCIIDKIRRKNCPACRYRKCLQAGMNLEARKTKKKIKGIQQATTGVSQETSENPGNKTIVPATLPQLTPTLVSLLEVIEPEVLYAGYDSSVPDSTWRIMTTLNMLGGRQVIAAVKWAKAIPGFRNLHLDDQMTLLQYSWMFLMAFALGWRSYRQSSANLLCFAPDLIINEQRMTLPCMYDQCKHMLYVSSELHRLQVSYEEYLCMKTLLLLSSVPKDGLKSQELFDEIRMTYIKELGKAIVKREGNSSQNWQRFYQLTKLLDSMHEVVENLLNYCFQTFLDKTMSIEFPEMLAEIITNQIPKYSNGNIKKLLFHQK
Experiment: glucocorticoid receptor (GR) cytosol binding assay, [3H]-dexamethasone competition
Conditions: not given
Source text: For glucocorticoid receptor (OR) cytosol binding assays, the procedure described in Anal. […] Briefly, cytosol preparations of human glucocorticoid receptor-α [GRX] isoform and human progesterone receptor-A [PRA] isoform were obtained from Ligand Pharmaceuticals (San Diego, CA). Both receptor cDNAs were cloned into baculovirus expression vectors and expressed in insect SF21 cells. […] Glass fiber type C multiscreen MAFC NOB plates were from Millipore ( Burlington, MA). Hydroxyapatide Bio-Gel HTP gel was obtained from Bio-Rad Laboratories (Hercules. CA). Tris(hydroxymethyl)aminomethane (Tris), ethylenediaminetetraacetic acid (EDTA), glycerol, dithiothreitol (DTT) and sodium moylybdate were obtained from Sigma Chemicals (St. Louis, MO). Microscint-20 scintillation fluid was obtained from Packard Instrument (Meriden, CT). […] GRX and PRA binding reactions were performed in Millipore Multiscreen plates. […] Specific binding was defined as the difference between binding of [^3H]Dex in the absence and in the presence of 1µM unlabeled Dex. After an overnight incubation, 50 µL of hydroxyapatite (25 % weight/volume) slurry were added to each well and plates were incubated for 10 min at 4 °C in a plate shaker. Plates were suctioned with a Millipore vacuum manifold and each well was rinsed with 300 µL of ice-cold binding buffer. A 250 µL aliquot of Packard Microscint-20 was added to each well and the wells were shaken at room temperature for 20 minutes. The amount of radioactivity was determined with a Packard TopCount plate reader.

SMILES	Ki
CN(C)c1ccc(C(c2ccc(N(C)C)cc2)c2cc(C(F)(F)F)ccc2Cl)cc1 [Example 17, 4',4" bis(dimethylamino)-2-chloro-5-trifluoromethyltriphenylmethane]	4700 nM
CN(C)c1ccc(C(c2ccc(N(C)C)cc2)c2c(Cl)cccc2Cl)cc1 [Example 20, 4',4" bis(dimethylamino)-2,6-dichlorotriphenylmethane]	1930 nM
CN(C)c1ccc(C(c2ccc(N(C)C)cc2)c2ccccc2Br)cc1 [Example 14, 4',4" bis(dimethylamino)-2-bromotriphenylmethane]	1510 nM
CN(C)c1ccc(C(c2ccc(N(C)C)cc2)c2cc(Cl)cc(Cl)c2Cl)cc1 [Example 16, 4',4" bis(dimethylamino)-2,3,5-trichlorotriphenylmethane]	479 nM

Same assay, conditions: [3H]-Dex ~0.9 nM, GRX cytosol, 4 °C overnight; Cheng-Prusoff; read-out: Ki (nM) GR

SMILES	Ki
CN(C)c1ccc(C(c2ccc(N(C)C)cc2)c2ccc(Cl)c([N+](=O)[O-])c2)cc1 [Example 2, 4',4" bis(dimethylamino)-4-chloro-3-nitrotriphenylmethane]	4200 nM
CN(C)c1ccc(C(c2ccc(N(C)C)cc2)c2c(Cl)cccc2[N+](=O)[O-])cc1 [Example 12, 4',4" bis(dimethylamino)-2-chloro-6-nitrotriphenylmethane]	3850 nM
CN(C)c1ccc(C(c2ccccc2)c2cc([N+](=O)[O-])ccc2Cl)cc1 (centres unmarked) [Example 56, 4'-dimethylamino-2-chloro-5-nitrotriphenylmethane]	1030 nM
CN(C)c1ccc(C(c2ccc(Cl)cc2)c2ccc(N(C)C)cc2)cc1 [Example 5, 4',4" bis(dimethylamino)-4-chlorotriphenylmethane]	4650 nM
CN(C)c1ccc(C(c2ccc(N(C)C)cc2)c2cccc(Cl)c2)cc1 [Example 6, 4',4" bis(dimethylamino)-3-chlorotriphenylmethane]	2520 nM
CN(C)c1ccc(C(c2ccc(N(C)C)cc2)c2cc(NC(=O)C3CC3)ccc2Cl)cc1 [Example 62, 4',4" bis(dimethylamino)-2-chloro-5-(cyclopropylcarbamido)-triphenylmethane]	4600 nM
CN(C)c1ccc(C(O)(c2ccccc2)c2ccccc2Cl)cc1 (centres unmarked) [Example 57, 4'-dimethylamino-2-chlorotriphenylmethanol]	2030 nM
